# Patent publication US10681909B2, “Herbicidal triazoles” (FMC Corporation, priority 2014, dated 2020)
# What was measured:
# [1] = system: kochia; test: Test A preemergence; format: in vivo, Kochia scoparia; conditions: 0 to 100 scale (0 no effect, 100 complete control)
# Method in brief: (§1)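 Weed and crop species in loam–sand blend sprayed preemergence on soil or postemergence at 2–10 cm, one- to two-leaf stage, with chemicals in surfactant-containing solvent. Injury rated visually after ~10 d in greenhouse versus untreated controls on a 0–100 scale (100 = complete control).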
# [2] = system: ragweed; test: Test A postemergence; format: in vivo, Ambrosia elatior; conditions: 0 to 100 scale (0 no effect, 100 complete control), approx. 10 d
# Method in brief: as §1
# [3] = system: blackgrass; test: Test C preemergence; format: in vivo, Alopecurus myosuroides; conditions: for Plant response rating (scale of 0 to 100 where 0 is no effect and 100 is complete control): Blackgrass, preemergence; for Blackgrass plant response rating (0 to 100): Preemergence, visual rating after 13 to 15 d
# Method in brief: (§2)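 Pre: seeded into loam/sand, sprayed same time. Post: plants in peat moss–vermiculite mix with starter nutrients and dolomitic limestone, treated at 1- to 4-leaf stage (2 to 18 cm). Formulation: non-phytotoxic solvent blend plus surfactant.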
# [4] = system: corn; test: Test C preemergence; format: in vivo, Zea mays; conditions: for Plant response rating (scale of 0 to 100 where 0 is no effect and 100 is complete control): Corn, preemergence; for Corn plant response rating (0 to 100): Preemergence, visual rating after 13 to 15 d
# Method in brief: as §2
# [5] = system: crabgrass, large; test: Test C preemergence; format: in vivo, Digitaria sanguinalis; conditions: for Plant response rating (scale of 0 to 100 where 0 is no effect and 100 is complete control): Crabgrass, Large, preemergence; for Crabgrass, Large plant response rating (0 to 100): Preemergence, visual rating after 13 to 15 d
# Method in brief: as §2
# [6] = system: lambsquarters; test: Test C preemergence; format: in vivo, Chenopodium album; conditions: for Plant response rating (scale of 0 to 100 where 0 is no effect and 100 is complete control): Lambsquarters, preemergence; for Lambsquarters plant response rating (0 to 100): Preemergence, visual rating after 13 to 15 d
# Method in brief: as §2
# [7] = system: pigweed; test: Test C preemergence; format: in vivo, Amaranthus retroflexus; conditions: for Plant response rating (scale of 0 to 100 where 0 is no effect and 100 is complete control): Pigweed, preemergence; for Pigweed plant response rating (0 to 100): Preemergence, visual rating after 13 to 15 d
# Method in brief: as §2
# [8] = system: canarygrass; test: Test D preemergence; format: in vivo, Phalaris minor; conditions: for Plant response rating: Canarygrass: scale 0 to 100
# Method in brief: (§3)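 Test chemicals in a non-phytotoxic solvent with surfactant applied preemergence to seeds in silt loam soil, or postemergence to plants 2–18 cm tall (1- to 4-leaf stage) grown in peat-based medium. Injury visually rated against untreated controls after 14–21 d in a controlled environment.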
# [9] = system: radish, wild; test: Test D preemergence; format: in vivo, Raphanus raphanistrum; conditions: for Plant response rating: Radish, Wild: scale 0 to 100
# Method in brief: as §3
# [10] = system: windgrass; test: Test D preemergence; format: in vivo, Apera spica-venti; conditions: for Plant response rating: Windgrass: scale 0 to 100
# Method in brief: as §3
# [11] = system: canarygrass; test: Test D postemergence; format: in vivo, Phalaris minor; conditions: scale 0 to 100
# Method in brief: as §3
# [12] = system: pigweed; test: Test D postemergence; format: in vivo, Amaranthus retroflexus; conditions: scale 0 to 100
# Method in brief: as §3
# [13] = system: windgrass; test: Test D postemergence; format: in vivo, Apera spica-venti; conditions: scale 0 to 100
# Method in brief: as §3
# [14] = 16 g ai/ha, 0 is no effect, 100 is complete control
smiles,measurement,setting,value
"CCOc1nc(-c2ccc(C(F)(F)F)cc2)nn1Cc1ccnc(C(F)(F)F)c1 [Compound 35, 4-[[5-ethoxy-3-[4-(trifluoromethyl)phenyl]-1H-1,2,4-triazole-1-yl]methyl]-2-(trifluoromethyl)pyridine]","Plant response rating, Kochia",[1]; 31 g ai/ha,90
same,"Plant response rating, Kochia",[1]; 125 g ai/ha,90
same,"Plant response rating, Ragweed",[2]; 31 g ai/ha,20
same,"Plant response rating, Ragweed",[2]; 125 g ai/ha,60
same,Plant response rating (scale of 0 to 100 where 0 is no effect and 100 is complete control),[3]; 125 g ai/ha,90
same,Plant response rating (scale of 0 to 100 where 0 is no effect and 100 is complete control),[3]; 250 g ai/ha,90
same,Blackgrass plant response rating (0 to 100),[3]; 31 g ai/ha,90
same,Blackgrass plant response rating (0 to 100),[3]; 62 g ai/ha,85
same,Plant response rating (scale of 0 to 100 where 0 is no effect and 100 is complete control),[4]; 125 g ai/ha,35
same,Plant response rating (scale of 0 to 100 where 0 is no effect and 100 is complete control),[4]; 250 g ai/ha,45
same,Corn plant response rating (0 to 100),[4]; 31 g ai/ha,5
same,Corn plant response rating (0 to 100),[4]; 62 g ai/ha,15
same,Plant response rating (scale of 0 to 100 where 0 is no effect and 100 is complete control),[5]; 125 g ai/ha,100
same,Plant response rating (scale of 0 to 100 where 0 is no effect and 100 is complete control),[5]; 250 g ai/ha,100
same,"Crabgrass, Large plant response rating (0 to 100)",[5]; 31 g ai/ha,100
same,"Crabgrass, Large plant response rating (0 to 100)",[5]; 62 g ai/ha,100
same,Plant response rating (scale of 0 to 100 where 0 is no effect and 100 is complete control),[6]; 125 g ai/ha,100
same,Plant response rating (scale of 0 to 100 where 0 is no effect and 100 is complete control),[6]; 250 g ai/ha,98
same,Lambsquarters plant response rating (0 to 100),[6]; 31 g ai/ha,98
same,Lambsquarters plant response rating (0 to 100),[6]; 62 g ai/ha,98
same,Plant response rating (scale of 0 to 100 where 0 is no effect and 100 is complete control),[7]; 125 g ai/ha,100
same,Plant response rating (scale of 0 to 100 where 0 is no effect and 100 is complete control),[7]; 250 g ai/ha,100
same,Pigweed plant response rating (0 to 100),[7]; 31 g ai/ha,98
same,Pigweed plant response rating (0 to 100),[7]; 62 g ai/ha,100
same,"Plant response rating (0 to 100), Canarygrass",[8]; [14],45
same,Plant response rating: Canarygrass,[8]; 31 g ai/ha,95
same,Plant response rating: Canarygrass,[8]; 62 g ai/ha,100
same,Plant response rating: Canarygrass,[8]; 125 g ai/ha,100
same,"Plant response rating (0 to 100), Radish, Wild",[9]; [14],65
same,"Plant response rating: Radish, Wild",[9]; 62 g ai/ha,85
same,"Plant response rating: Radish, Wild",[9]; 125 g ai/ha,100
same,"Plant response rating (0 to 100), Windgrass",[10]; [14],70
same,Plant response rating: Windgrass,[10]; 62 g ai/ha,85
same,Plant response rating: Windgrass,[10]; 125 g ai/ha,100
same,Plant response rating: Canarygrass,[11]; 16 g ai/ha,65
same,Plant response rating: Canarygrass,[11]; 31 g ai/ha,70
same,Plant response rating: Canarygrass,[11]; 62 g ai/ha,75
same,Plant response rating: Canarygrass,[11]; 125 g ai/ha,80
same,Plant response rating: Pigweed,[12]; 16 g ai/ha,100
same,Plant response rating: Pigweed,[12]; 31 g ai/ha,100
same,Plant response rating: Pigweed,[12]; 62 g ai/ha,100
same,Plant response rating: Pigweed,[12]; 125 g ai/ha,100
same,Plant response rating: Windgrass,[13]; 16 g ai/ha,55
same,Plant response rating: Windgrass,[13]; 31 g ai/ha,75
same,Plant response rating: Windgrass,[13]; 62 g ai/ha,80
same,Plant response rating: Windgrass,[13]; 125 g ai/ha,90
